Reference: patent US20230348564A1, “ANTI-CANCER PROTEINS” (UNICHEM LABORATORIES LTD, priority 2020, published 2023)

Assays:
MDA-MB-231 = assay: Annexin-V staining (flow cytometry); format: cell-based, Human; conditions: 24 h
Description: (§1) The cell lines were maintained in DMEM+10% FBS (heat inactivated) at 37° C. with 5% CO2, and 95% humidity. Antibiotics Penicillin (100 U/mL) and Streptomycin (100 μg/mL) were added to the medium.
(§2) The stock solution of recombinant lectin having the amino acid sequence of SEQ ID NO. […] Doxorubicin was used as positive control and stock solution was prepared in DMSO.
(§3) Cells were counted using hemocytometer and plated in culture plates at the density of 0.4×10^6 cells/well in DMEM+10% FBS in 6-well plates. Cells were incubated overnight to allow the cell recovery and exponential growth. Following overnight incubation, cells were treated with Lectin having the amino acid sequence of SEQ ID NO. 2 in DMEM+0% FBS at concentrations ranging from 2.5 μg/mL to 80 μg/mL. Untreated cells were included as Control group for sample. Cells treated with Doxorubicin were included as Positive Control group. DMSO treated cells were included as control group for Doxorubicin. After treatment, cells were incubated for a time period of 24 h.
(§4) Following incubation, the pro-apoptotic effect was estimated using Annexin assay kit as follows: Annexin reagent contains Annexin-V+7-AAD stain, which differentially labels apoptotic cells in different phases. Four populations of cells can be determined from the flow cytometric plots as follows: • a) Upper Left (UL)—7-AAD(+)/Annexin(−) or Necrotic cells • b) Upper Right (UR)—7-AAD(+)/Annexin(+) or Late apoptotic cells • c) Lower Left (LL)—7-AAD(−)/Annexin(−) or Viable/non-apoptotic cells • d) Lower Right (LR)—7-AAD(−)/Annexin(+) or Early apoptotic cells
(§5) Cells were gently harvested into pre-labeled sterile centrifuge tubes and centrifuged at 300×g for 5-7 min. Supernatant were discarded and the pellet was resuspended in 200 μl of fresh culture medium.
(§6) 100 μl of cell suspension was transferred into pre-labeled sterile centrifuge tubes.
(§7) 100 μl of Annexin-V reagent was added to each tube and incubated for 30 min at RT in dark.
(§8) Cells stained for Annexin-V were then transferred into 96-well plates and acquired on flow cytometer (Guava technologies). Percentage of cells in early apoptotic, late apoptotic and necrotic phase were determined.
(§9) Fold increase in apoptotic cells (treated with Test Items) was determined as compared to Control (untreated cells).

PANC-1 = assay: Annexin-V staining (flow cytometry); format: cell-based, Human; conditions: 24 h
Description: as §1, §2, §3, §4, §5, §6, §7, §8, §9

[1] = system: VEGF release in MDA-MB-231 cells; assay: VEGF secretion in cancer cells (Human VEGF ELISA); format: cell-based; conditions: 24 h
Description: (§10) The cell lines were maintained in DMEM+10% […] (heat inactivated) at 37° C. with 5% CO2, and 95% humidity. Cells were counted and plated in 6-well plates for 24 h at a density of 0.5×10^6 cells/well. The cells were incubated overnight under growth conditions as described above so as to allow cell recovery and exponential growth. Cells were treated with each test item at different concentrations for 24h in serum free media. Doxorubicin was used as positive control. Secreted levels of VEGF were determined in supernatants after 24 hours using Human VEGF ELISA kit (R&D systems) as per manufacturer's protocol. Change in VEGF levels corresponding to each treatment was calculated using the following formula: […]

[2] = system: VEGF release in PANC-1 cells; assay: VEGF secretion in cancer cells (Human VEGF ELISA); format: cell-based; conditions: 24 h
Description: as §10

[3] = system: AGS (Human stomach adenocarcinoma); assay: Calcein AM cytotoxicity assay; conditions: SEQ ID 2 80 μg/mL, doxorubicin 100 μM; 48h
Description: (§11) All the cancer cell lines were procured from National Centre for Cell Science, Pune (India). The cell lines were maintained under conditions as described in Table 21 below. The cell lines were sub-cultured by trypsinization followed by splitting the cell suspension into fresh flasks and supplementing with fresh culture medium.
(§12) All the cell lines were grown in specified media at 37° C. with 95% Humidity and […].
(§13) The cells were trypsinized, counted by Trypan blue method in Neuebauer's Chamber and plated in wells of flat bottom 96-well plate (dark walled plate, flat bottom) at the density corresponding to 10×10^3 cells/well/180 μl medium.
(§14) Following overnight incubation, the cells were treated with test item (20 μL) at concentrations ranging from 2.5-80 μg/mL, so that the total volume in each well is 200 μL.
(§15) The cells were incubated with the test items or positive control for a time period of 48h. Following incubation, the cell cytotoxicity was estimated using Calcein AM Cell Viability Assay Kit from R&D systems (Cat No. 4892-010-K).
(§16) Fluorescence was measured at 485 nm (excitation/528 run (emission) spectra using Synergy HT micro plate reader.
(§17) Percentage cytotoxicity wrt untreated cells was calculated using formula:
(§18) Cytotoxicity=[(RFUuntreated−RFUsample)/RFUuntreated]*100
(§19) RFU: relative fluorescence units
(§20) IC50 value was calculated using Graph-Pad Prism version 4.01 software.

[4] = system: HT-29 (Human Colorectal adenocarcinoma); assay: Calcein AM cytotoxicity assay; conditions: SEQ ID 2 80 μg/mL, doxorubicin 100 μM; 48h
Description: as §11, §12, §13, §14, §15, §16, §17, §18, §19, §20

[5] = system: KB (Human cervical carcinoma); assay: Calcein AM cytotoxicity assay; conditions: SEQ ID 2 80 μg/mL, doxorubicin 100 μM; 48h
Description: as §11, §12, §13, §14, §15, §16, §17, §18, §19, §20

[6] = system: MCF-10A (Human mammary epithelial cells); assay: Calcein AM cytotoxicity assay; conditions: SEQ ID 2 80 μg/mL, doxorubicin 100 μM; 48h
Description: as §11, §12, §13, §14, §15, §16, §17, §18, §19, §20

[7] = system: MCF-7 (Human breast adenocarcinoma); assay: Calcein AM cytotoxicity assay; conditions: SEQ ID 2 80 μg/mL, doxorubicin 100 μM; 48h
Description: as §11, §12, §13, §14, §15, §16, §17, §18, §19, §20

[8] = system: PA-1 (Human Ovary carcinoma); assay: Calcein AM cytotoxicity assay; conditions: SEQ ID 2 80 μg/mL, doxorubicin 100 μM; 48h
Description: as §11, §12, §13, §14, §15, §16, §17, §18, §19, §20

[9] = system: SK-Mel-28 (Human melanoma); assay: Calcein AM cytotoxicity assay; conditions: SEQ ID 2 80 μg/mL, doxorubicin 100 μM; 48h
Description: as §11, §12, §13, §14, §15, §16, §17, §18, §19, §20

[10] = system: SKOV-3 (Human Ovary adenocarcinoma); assay: Calcein AM cytotoxicity assay; conditions: SEQ ID 2 80 μg/mL, doxorubicin 100 μM; 48h
Description: as §11, §12, §13, §14, §15, §16, §17, §18, §19, §20

[11] = system: SW620 (Human Colorectal adenocarcinoma); assay: Calcein AM cytotoxicity assay; conditions: SEQ ID 2 80 μg/mL, doxorubicin 100 μM; 48h
Description: as §11, §12, §13, §14, §15, §16, §17, §18, §19, §20

[12] = system: SiHa (Human cervix squamous cell carcinoma); assay: Calcein AM cytotoxicity assay; conditions: SEQ ID 2 80 μg/mL, doxorubicin 100 μM; 48h
Description: as §11, §12, §13, §14, §15, §16, §17, §18, §19, §20

[13] = system: ZR-75-1 (Human ductal carcinoma); assay: Calcein AM cytotoxicity assay; conditions: SEQ ID 2 80 μg/mL, doxorubicin 100 μM; 48h
Description: as §11, §12, §13, §14, §15, §16, §17, §18, §19, §20

Q: For COc1cccc2c1C(=O)c1c(O)c3c(c(O)c1C2=O)C[C@@](O)(C(=O)CO)C[C@@H]3O[C@H]1C[C@H](N)[C@H](O)[C@H](C)O1 [Doxorubicin, reference compound], which “% Population of cells, LL Annex− 7AAD− Viable” value (MDA-MB-231; 10 μM) is on record?
A: 0.7%

Q: What about the “% Population of cells, LR Annex+ 7AAD− Early apoptotic” value (MDA-MB-231; 10 μM) of the same compound?
A: 6.8%

Q: What about the “% Population of cells, UL Annex− 7AAD+ Necrotic” value (MDA-MB-231; 10 μM) of the same compound?
A: 0.0%

Q: What about the “% Population of cells, UR Annex+ 7AAD+ Late apoptotic” value (MDA-MB-231; 10 μM) of the same compound?
A: 92.5%

Q: What about the “% Population of cells, LL Annex− 7AAD− Viable” value (MDA-MB-231; 100 μM) of the same compound?
A: 0.0%

Q: What about the “% Population of cells, LR Annex+ 7AAD− Early apoptotic” value (MDA-MB-231; 100 μM) of the same compound?
A: 0.0%

Q: And the “% Population of cells, UL Annex− 7AAD+ Necrotic” value (MDA-MB-231; 100 μM)?
A: 0.0%

Q: And the “% Population of cells, UR Annex+ 7AAD+ Late apoptotic” value (MDA-MB-231; 100 μM)?
A: 100.0%

Q: What about the “% Population of cells, LL Annex− 7AAD− Viable” value (PANC-1; 10 μM) of the same compound?
A: 25.6%

Q: And the “% Population of cells, LR Annex+ 7AAD− Early apoptotic” value (PANC-1; 10 μM)?
A: 6.0%

Q: And the “% Population of cells, UL Annex− 7AAD+ Necrotic” value (PANC-1; 10 μM)?
A: 0.5%

Q: What about the “% Population of cells, UR Annex+ 7AAD+ Late apoptotic” value (PANC-1; 10 μM) of the same compound?
A: 67.9%

Q: And the “% Population of cells, LL Annex− 7AAD− Viable” value (PANC-1; 100 μM)?
A: 1.3%

Q: What about the “% Population of cells, LR Annex+ 7AAD− Early apoptotic” value (PANC-1; 100 μM) of the same compound?
A: 1.9%

Q: What about the “% Population of cells, UL Annex− 7AAD+ Necrotic” value (PANC-1; 100 μM) of the same compound?
A: 0.1%

Q: And the “% Population of cells, UR Annex+ 7AAD+ Late apoptotic” value (PANC-1; 100 μM)?
A: 96.6%

Q: What about the “Average absorbance at 450 nM” value ([1]; 10 μM) of the same compound?
A: 0.176

Q: And the “Percentage decrease in VEGF levels” value ([1]; 10 μM)?
A: 89.2%

Q: What about the “VEGF level” value ([1]; 10 μM) of the same compound?
A: 49.9 pg/mL

Q: And the “Average absorbance at 450 nM” value ([1]; 100 μM)?
A: 0.145

Q: What about the “Percentage decrease in VEGF levels” value ([1]; 100 μM) of the same compound?
A: 93.7%

Q: What about the “VEGF level” value ([1]; 100 μM) of the same compound?
A: 29.0 pg/mL

Q: And the “Average absorbance at 450 nM” value ([2]; 10 μM)?
A: 0.506

Q: What about the “Percentage decrease in VEGF levels” value ([2]; 10 μM) of the same compound?
A: 73.6%

Q: What about the “VEGF level” value ([2]; 10 μM) of the same compound?
A: 269.7 pg/mL

Q: And the “Average absorbance at 450 nM” value ([2]; 100 μM)?
A: 0.483

Q: What about the “Percentage decrease in VEGF levels” value ([2]; 100 μM) of the same compound?
A: 75.1%

Q: What about the “VEGF level” value ([2]; 100 μM) of the same compound?
A: 254.6 pg/mL

Q: And the “Cytotoxicity at highest concentration tested” value (shortened to “Cytotoxicity”) [3]?
A: 81.0%

Q: What about the “Cytotoxicity” value [4] of the same compound?
A: 75.0%

Q: And the “Cytotoxicity” value [5]?
A: 92.0%

Q: And the “Cytotoxicity” value [6]?
A: 93.8%

Q: And the “Cytotoxicity” value [7]?
A: 60.7%

Q: What about the “Cytotoxicity” value [8] of the same compound?
A: 82.3%

Q: What about the “Cytotoxicity” value [9] of the same compound?
A: 65.9%

Q: What about the “Cytotoxicity” value [10] of the same compound?
A: 61.74%

Q: And the “Cytotoxicity” value [11]?
A: 93.5%

Q: What about the “Cytotoxicity” value [12] of the same compound?
A: 87.2%

Q: And the “Cytotoxicity” value [13]?
A: 52.6%
